Experimental data: ChEMBL document CHEMBL2074130, “Reversal of breast cancer resistance protein-mediated drug resistance by estrogen antagonists and agonists” (Mol Cancer Ther, 2003)

How the values were obtained:
[1] = target: T1, Broad substrate specificity ATP-binding cassette transporter ABCG2 (Homo sapiens, UniProt Q9UNQ0); assay: TP_TRANSPORTER: inhibition of topotecan uptake in BCRP-expressing K562 cells; format: functional, cell-based
T1 sequence (Q9UNQ0 whole entry): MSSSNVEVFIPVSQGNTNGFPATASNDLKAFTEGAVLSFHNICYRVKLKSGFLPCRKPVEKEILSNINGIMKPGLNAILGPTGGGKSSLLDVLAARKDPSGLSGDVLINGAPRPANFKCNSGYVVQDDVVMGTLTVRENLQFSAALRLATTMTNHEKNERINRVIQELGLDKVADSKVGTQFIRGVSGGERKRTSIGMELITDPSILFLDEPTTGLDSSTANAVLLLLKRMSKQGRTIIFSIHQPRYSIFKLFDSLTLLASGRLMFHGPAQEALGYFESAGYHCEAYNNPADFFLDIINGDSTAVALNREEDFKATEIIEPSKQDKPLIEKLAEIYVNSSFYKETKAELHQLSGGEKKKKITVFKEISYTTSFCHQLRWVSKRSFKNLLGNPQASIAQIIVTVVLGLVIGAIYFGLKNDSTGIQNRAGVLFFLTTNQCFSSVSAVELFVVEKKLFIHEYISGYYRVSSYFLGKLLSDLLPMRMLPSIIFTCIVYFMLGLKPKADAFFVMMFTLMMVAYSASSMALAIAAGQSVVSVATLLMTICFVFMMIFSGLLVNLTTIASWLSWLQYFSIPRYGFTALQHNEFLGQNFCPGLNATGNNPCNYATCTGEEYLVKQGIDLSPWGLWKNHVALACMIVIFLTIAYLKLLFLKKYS

[2] = target: T1, Broad substrate specificity ATP-binding cassette transporter ABCG2; assay: TP_TRANSPORTER: drug resistance in BCRP-expressing K562 cells; format: functional, cell-based

| Compound | Activity [1] | Activity [2] |
| --- | --- | --- |
| CC/C(=C(/c1ccc(OCCN(C)C)cc1)c1ccc(OCc2ccccc2)cc1)c1ccccc1 | inhibitor [] |  |
| CC/C(=C(\c1ccc(O)cc1)c1ccc(OCCNC)cc1)c1ccc(C(C)CO)cc1 (configuration not stated) | inhibitor [] |  |
| C[C@]12CC[C@@H]3c4ccc(O)cc4CC[C@H]3[C@@H]1CCC2=O [ESTRONE] | inhibitor [] |  |
| CC/C(=C(\c1ccc(O)cc1)c1ccc(OCCN(C)C)cc1)c1ccc(OCc2ccccc2)cc1 | inhibitor [] |  |
| CCc1c2c(nc3ccc(O)cc13)-c1cc3c(c(=O)n1C2)COC(=O)[C@]3(O)CC [7-ETHYL-10-HYDROXYCAMPTOTHECIN] |  | substrate [] |
| CC[C@@]1(O)C(=O)OCc2c1cc1n(c2=O)Cc2cc3c(CN(C)C)c(O)ccc3nc2-1 [TOPOTECAN] |  | substrate [] |
| CCC(=O)Oc1ccc(/C(CC)=C(\CC)c2ccc(OC(=O)CC)cc2)cc1 [DIETHYLSTILBESTROL DIPROPIONATE] | inhibitor [] |  |
| CC/C(=C(/CC)c1ccc(O)cc1)c1ccc(O)cc1 [DIETHYLSTILBESTROL] | inhibitor [] |  |
| CC/C(=C(/c1ccc(OCCN(C)C)cc1)c1ccc(OCc2ccc([N+](=O)[O-])cc2)cc1)c1ccccc1 | inhibitor [] |  |
| O=C1c2c(O)ccc(O)c2C(=O)c2c(NCCNCCO)ccc(NCCNCCO)c21 [MITOXANTRONE] |  | substrate [] |
| CC/C(=C(\c1ccc(O)cc1)c1ccc(OCCN(C)C)cc1)c1ccc(C(C)C)cc1 [MIPROXIFENE] | inhibitor [] |  |
| CC/C(=C(\c1ccc(O)cc1)c1ccc(OCCN(C)C)cc1)c1ccc(OC)cc1 | inhibitor [] |  |
